According to patent publication US20250295609A1, “COMPOUND HAVING ANTI-ANDROGEN RECEPTOR ACTIVITY, AND USE THEREOF” (NANJING MINOVA PHARMACEUTICAL CO., LTD., priority 2022, published 2025):

Assays:
[1] = target: T1, AR protein expression in human prostate cancer cells LNCaP (Homo sapiens, UniProt P10275, T878A); assay: Reduction of AR protein expression in LNCaP cells (Western blot, with DHT); format: cell-based; conditions: 1 nM DHT; for anti-AR activity (in words): Western blot; for AR reduction percentage / Relative potency (anti-AR activity): 48 h; for Relative potency (anti-AR activity): concentration basis not given
T1 sequence (P10275 1-920 T878A): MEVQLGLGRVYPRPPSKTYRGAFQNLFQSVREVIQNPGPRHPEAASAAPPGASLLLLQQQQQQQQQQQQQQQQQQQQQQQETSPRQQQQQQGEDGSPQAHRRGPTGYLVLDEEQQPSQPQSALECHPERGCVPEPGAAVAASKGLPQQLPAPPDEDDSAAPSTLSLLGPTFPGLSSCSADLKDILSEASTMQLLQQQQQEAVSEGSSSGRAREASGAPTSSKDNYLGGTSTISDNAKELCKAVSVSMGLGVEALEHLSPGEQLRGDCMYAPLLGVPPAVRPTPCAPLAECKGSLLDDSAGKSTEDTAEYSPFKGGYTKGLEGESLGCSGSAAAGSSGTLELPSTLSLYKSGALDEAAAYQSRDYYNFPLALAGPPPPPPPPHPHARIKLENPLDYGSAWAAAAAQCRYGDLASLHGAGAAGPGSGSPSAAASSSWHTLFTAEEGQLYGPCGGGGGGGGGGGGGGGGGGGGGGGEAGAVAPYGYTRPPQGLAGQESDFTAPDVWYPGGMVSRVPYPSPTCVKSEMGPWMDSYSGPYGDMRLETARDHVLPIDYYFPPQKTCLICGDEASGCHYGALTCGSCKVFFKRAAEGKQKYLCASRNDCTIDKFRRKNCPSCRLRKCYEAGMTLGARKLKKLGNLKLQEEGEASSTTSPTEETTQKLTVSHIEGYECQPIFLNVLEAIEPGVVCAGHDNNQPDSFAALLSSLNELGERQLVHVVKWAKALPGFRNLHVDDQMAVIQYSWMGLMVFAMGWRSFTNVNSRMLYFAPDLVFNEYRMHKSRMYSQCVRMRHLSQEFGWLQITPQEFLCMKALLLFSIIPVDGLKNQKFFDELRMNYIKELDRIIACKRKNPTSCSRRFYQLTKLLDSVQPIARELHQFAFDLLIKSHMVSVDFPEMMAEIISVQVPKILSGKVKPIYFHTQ
Method: The term “anti-AR activity” refers to the ability of the compound of the present disclosure to reduce AR expression in human prostate cancer cells LNCaP, and the ability of the compound of the present disclosure to reduce AR expression is expressed in AR reduction percentage (%) herein. […] The AR reduction percentage (%) is calculated as follows: AR reduction percentage (%)=(AR in DHT group/GAPDH value−AR in test compound group/GAPDH value)/AR in DHT group/GAPDH value×100%.
AR is a key factor for regulating the response of prostate cancer cells to androgens. AR is also a key factor for the response of hair follicles or tissues around the hair follicles to androgens, and the reduction of the AR content not only can down-regulate the growth of the prostate cancer cells, but also can inhibit androgenetic alopecia. This test example is to test the effects of the compounds of the present disclosure on the reduction of AR protein expression in human prostate cancer cells LNCaP in the presence of DHT. The compounds of the present disclosure were analyzed for anti-AR activity in human prostate cancer cells LNCaP by measuring the reduction of AR protein using the Western blot method.
Human prostate cancer cells LNCaP were seeded in a 6-well plate at 4×10^5 cells/mL and at a volume of 2 mL per well. The plate was incubated overnight in a cell incubator. DMSO and dihydrotestosterone (DHT, 1 nM) were used as control groups. Assays were performed in the presence of dihydrotestosterone (DHT, 1 nM). After incubating with the test compounds for a specified time, the cells were collected and dissolved according to the Western blot technique known in the biochemical art. A DMSO group, a DHT group (1 nM) and test compound groups (containing 1 nM DHT) were set during the assay. DMSO and DHT (1 nM DHT) were added to 6-well plates corresponding to the DMSO group and the DHT group, respectively. […] The protein concentration was quantified using the BCA kit, and then the samples were stored for later use.
The content of the AR protein in each group was determined by using Western Blot, and the loading amount of the sample in each group was […]. Western blot analysis has been disclosed in the prior art. Specifically, the cells were collected in 2× sodium dodecyl sulfate/polyacrylamide gel electrophoresis loading buffer or in radioimmunoprecipitation assay (RIPA) buffer strengthened with 10 μg/mL benzamidine, 10 μg/mL trypsin inhibitor, and 1 mM phenylmethylsulfonyl fluoride. A sample of total protein (about 40 μg) from each cell lysate was separated by electrophoresis on an SDS/PAGE gel. After separation by electrophoresis, the proteins were transferred from the gel to a nitrocellulose membrane following the standard procedures. The membrane was then incubated with 10% non-fat milk in phosphate-buffered saline supplemented with 0.1% Tween 20 (PBST) for 1 h, followed by incubation with a primary human AR-specific antibody (purchased from BD-Harlingen) at 4° C. overnight. After incubation, the membrane was washed 3 times with PBST buffer, each for 10 mins. An alkaline phosphatase-conjugated secondary antibody was then added, and the membrane was incubated at room temperature for 1 h. After the secondary incubation, the membrane was washed again with PBST, and the AR protein signal in the membrane was visualized by adding an alkaline phosphatase medium, bromochloroindolyl phosphate, and nitrotetrazole to the membrane. To ensure that an equal amount of protein from each sample was analyzed, a portion of the membrane was kept with a specific antibody for the regulatory protein GAPDH (Santa Cruz Biotechnology), and the GAPDH signal was visualized with the secondary antibody described above. The protein signal intensity (as indicated by color bands on the membrane) was measured using a densitometer and analyzed by the NIH Image J software (NIH1.33).

[2] = Pharmacokinetic study, single oral administration to SD rats; conditions: for AUC(0-t) / Cmax / Tmax / half-life: male, SD, rat, po, 50 mg/kg
Method: Experimental method: Male SD rats were randomly grouped (3 rats per group), given ad libitum access to water during the assay, fasted for 12 or more hours before administration, and given food 4 hours after administration.
The blood was centrifuged within 60 min of being collected to isolate plasma (centrifuged at 8000 rpm at 2-8° C. for 5 min). After the centrifugation, the plasma was transferred to a 96-well plate or centrifuge tubes, transported in a box with ice, and stored at ≤−15° C. before LC-MS/MS analysis. The drug concentration in the plasma of SD rats was measured by LC-MS/MS bioanalysis, and the plasma concentration-time data were analyzed using WinNonlin™ (Version 8.3, Certara, USA) and a non-compartmental model to evaluate the pharmacokinetic (PK) profiles of the compounds in SD rats.

COc1ccc(/C=C/C(=O)C2(C(=O)/C=C/c3ccc(OC)c(OC)c3)CCC(=O)CC2)cc1OC [Compound 7]
anti-AR activity (in words) [1]: significant anti-AR activities | AR reduction percentage ([1]; 2.5 μmol/L compound): 0% | AR reduction percentage ([1]; 5 μmol/L compound): 67.3% | AR reduction percentage ([1]; 10 μmol/L compound): 95.6% | Relative potency (anti-AR activity) [1]: +++++ (62.5 < * ≤ 75) | AUC(0-t) ([2]; in vivo): 460 ng·h/mL | Cmax ([2]; in vivo): 298 ng/mL | Tmax ([2]; in vivo): 11.4 min | half-life ([2]; in vivo): 177 min

COc1ccc(/C=C/C(=O)C2(C(=O)/C=C/c3ccc(OC)c(OC)c3)CCC(F)(F)CC2)cc1OC [Compound 8]
anti-AR activity (in words) [1]: significant anti-AR activities | AR reduction percentage ([1]; 2.5 μmol/L compound): 57.5% | AR reduction percentage ([1]; 5 μmol/L compound): 87.3% | AR reduction percentage ([1]; 10 μmol/L compound): 92.2% | Relative potency (anti-AR activity) [1]: ++++++ (75 < * ≤ 100) | AUClast in rats (comparison in words) ([2]; SD rats, oral, same dose, FIG. 2): higher AUClast than that of compound 7 | AUC(0-t) ([2]; plasma): 1010 ng·h/mL | Cmax ([2]; plasma): 282 ng/mL | Tmax ([2]; plasma): 19.8 min | half-life ([2]; plasma): 94.2 min
